This experiment concerns the target Beta-3 Adrenergic Receptor (Homo sapiens (Human), UniProt P13945). Kind of experiment: HTRF cAMP antagonist assay (IC50 determination). It is filed as cell-based. Particulars: CHO-K1 cells stably expressing recombinant receptor; antagonism of isoproterenol at EC90; cAMP readout. As to the method:
HTRF cAMP assays were performed according to manufacturer's instructions (Cisbio, cAMP Dynamic 2 Assay Kit; #62AM4PEJ). CHO-K1 cells stably expressing recombinant receptor were harvested and suspended in warm PBS to make a 300,000 cells/mL stock. This cell suspension was dispensed into 384 well assay plates (PerkinElmer ProxiPlate #6008280) at 5 μL per well (1500 cells/well) along with a cAMP standard curve.
Compounds were dissolved and serially diluted (5-fold) in DMSO to generate a 10-point dose response stock. The stock was then diluted 100-fold in assay buffer (PBS containing 1 mM IBMX) before a volume of 2.5 μL was added to the cells (the final, top concentration of compound in the dose-response is typically 10 or 100 μM). After a brief incubation, 2.5 μL of isoproterenol stock, prepared at a concentration 4 times its EC90 at the receptor of interest, was added to the wells. The EC90 for isoproterenol, a beta-adrenergic agonist, was determined in separate experiments using standard methods to measure agonist potencies.
Following a 1-hour incubation at room temperature, 5 μL of cAMP-D2 Reagent diluted in Lysis Buffer was added to each well followed by 5 μL of Cryptate Reagent. Plates were further incubated at room temperature for 1 hour prior to reading. Time resolved fluorescence measurements were collected on a suitable, HTRF-capable plate reader.
Counts from the plate reader were fit to the cAMP standard curve on the assay plate in order to determine cAMP concentrations in each well, and these values were used to construct dose-response curves to obtain IC50 values.

The source of these data is patent US10927123B2, “Modulators of the beta-3 adrenergic receptor useful for the treatment or prevention of disorders related thereto” (Arena Pharmaceuticals, Inc., priority 2016, dated 2021).

SMILES strings stand for the structures.

Sequence of Beta-3 Adrenergic Receptor (P13945 whole entry, species assumed): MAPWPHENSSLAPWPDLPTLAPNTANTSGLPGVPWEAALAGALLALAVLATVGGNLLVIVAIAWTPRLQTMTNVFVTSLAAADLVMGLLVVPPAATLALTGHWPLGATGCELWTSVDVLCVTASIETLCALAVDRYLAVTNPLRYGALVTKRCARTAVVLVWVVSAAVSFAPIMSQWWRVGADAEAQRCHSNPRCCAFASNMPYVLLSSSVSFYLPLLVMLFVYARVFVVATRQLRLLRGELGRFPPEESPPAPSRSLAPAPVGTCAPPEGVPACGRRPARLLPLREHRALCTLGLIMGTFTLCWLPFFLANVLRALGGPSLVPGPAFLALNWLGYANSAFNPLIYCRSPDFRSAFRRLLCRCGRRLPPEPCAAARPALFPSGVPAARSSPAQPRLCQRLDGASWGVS

One may read the IC50 as the point on the concentration scale where inhibition reaches its midpoint. In the case of `CCS(=O)(=O)c1cccc(OC[C@@H](O)CN[C@H]2COC3(CCN(S(=O)(=O)c4ccc5ccccc5c4)CC3)C2)c1` [Compound 26, (S)-1-(3-(ethylsulfonyl)phenoxy)-3-((R)-8-(naphthalen-2-ylsulfonyl)-1-oxa-8-azaspiro[4.5]decan-3-ylamino)propan-2-ol], the IC50 is 5.25 nM.

For `CCS(=O)(=O)c1cccc(OC[C@@H](O)CN[C@@H]2COC3(CCN(S(=O)(=O)c4ccc5ccccc5c4)CC3)C2)c1` [Compound 27, (S)-1-(3-(ethylsulfonyl)phenoxy)-3-((S)-8-(naphthalen-2-ylsulfonyl)-1-oxa-8-azaspiro[4.5]decan-3-ylamino)propan-2-ol], the IC50 worked out at 19.3 nM.

For the compound `CS(=O)(=O)c1cccc(OC[C@@H](O)CNC2COC3(CCN(S(=O)(=O)c4ccc5c(c4)CCCO5)CC3)C2)c1` (stereo partly drawn) [Compound 28, (2S)-1-(8-(chroman-6-ylsulfonyl)-1-oxa-8-azaspiro[4.5]decan-3-ylamino)-3-(3-(methylsulfonyl)phenoxy)propan-2-ol], the IC50 is 18.5 nM.

With `CS(=O)(=O)c1cccc(OC[C@@H](O)CNC2COC3(CCN(S(=O)(=O)c4ccc5c(c4)CCCC5)CC3)C2)c1` (stereo partly drawn) [Compound 29, (2S)-1-(3-(methylsulfonyl)phenoxy)-3-(8-(5,6,7,8-tetrahydronaphthalen-2-ylsulfonyl)-1-oxa-8-azaspiro[4.5]decan-3-ylamino)propan-2-ol], the IC50 is 16.1 nM.

`CS(=O)(=O)c1cccc(OC[C@@H](O)CNC2COC3(CCN(S(=O)(=O)c4ccc(Cl)c5nonc45)CC3)C2)c1` (stereo partly drawn) [Compound 30, (2S)-1-(8-(7-chlorobenzo[c][1,2,5]oxadiazol-4-ylsulfonyl)-1-oxa-8-azaspiro[4.5]decan-3-ylamino)-3-(3-(methylsulfonyl)phenoxy)propan-2-ol]: the IC50 was determined as 34.3 nM.

On to `CS(=O)(=O)c1cccc(OC[C@@H](O)CNC2COC3(CCN(S(=O)(=O)c4cccc(Cl)c4)CC3)C2)c1` (stereo partly drawn) [Compound 31, (2S)-1-(8-(3-chlorophenylsulfonyl)-1-oxa-8-azaspiro[4.5]decan-3-ylamino)-3-(3-(methylsulfonyl)phenoxy)propan-2-ol], for which the IC50 is 49.3 nM.

As for `CN1CCOc2ccc(S(=O)(=O)N3CCC4(CC3)CC(NC[C@H](O)COc3cccc(S(C)(=O)=O)c3)CO4)cc21` (stereo partly drawn) [Compound 32, (2S)-1-(8-(4-methyl-3,4-dihydro-2H-benzo[b][1,4]oxazin-6-ylsulfonyl)-1-oxa-8-azaspiro[4.5]decan-3-ylamino)-3-(3-(methylsulfonyl)phenoxy)propan-2-ol], the IC50 amounted to 21.1 nM.

For the compound `CS(=O)(=O)c1cccc(OC[C@H](O)CN[C@@H]2COC3(CCN(S(=O)(=O)c4ccc5ccccc5c4)CC3)C2)c1` [Compound 33, (R)-1-(3-(methylsulfonyl)phenoxy)-3-((S)-8-(naphthalen-2-ylsulfonyl)-1-oxa-8-azaspiro[4.5]decan-3-ylamino)propan-2-ol], the IC50 was 189 nM.

On to `O=S(=O)(CCO)c1cccc(OC[C@@H](O)CN[C@@H]2COC3(CCN(S(=O)(=O)c4ccc5ccccc5c4)CC3)C2)c1` [Compound 34, (S)-1-(3-(2-hydroxyethylsulfonyl)phenoxy)-3-((S)-8-(naphthalen-2-ylsulfonyl)-1-oxa-8-azaspiro[4.5]decan-3-ylamino)propan-2-ol], for which the IC50 turned out to be 31.2 nM.

As for `O=S(=O)(CCO)c1cccc(OC[C@@H](O)CN[C@H]2COC3(CCN(S(=O)(=O)c4ccc5ccccc5c4)CC3)C2)c1` [Compound 35, (S)-1-(3-(2-hydroxyethylsulfonyl)phenoxy)-3-((R)-8-(naphthalen-2-ylsulfonyl)-1-oxa-8-azaspiro[4.5]decan-3-ylamino)propan-2-ol], the IC50 was 20.3 nM.

In the case of `CCn1cc(-c2cccc(S(=O)(=O)N3CCC4(CC3)CC(NC[C@H](O)COc3cccc(S(C)(=O)=O)c3)CO4)c2)cn1` (stereo partly drawn) [Compound 36, (2S)-1-(8-(3-(1-ethyl-1H-pyrazol-4-yl)phenylsulfonyl)-1-oxa-8-azaspiro[4.5]decan-3-ylamino)-3-(3-(methylsulfonyl)phenoxy)propan-2-ol], the IC50 was 21.5 nM.

Consider `CS(=O)(=O)c1cccc(OC[C@@H](O)CNC2COC3(CCN(S(=O)(=O)c4cccc(-c5cn[nH]c5)c4)CC3)C2)c1` (stereo partly drawn) [Compound 37, (2S)-1-(8-(3-(1H-pyrazol-4-yl)phenylsulfonyl)-1-oxa-8-azaspiro[4.5]decan-3-ylamino)-3-(3-(methylsulfonyl)phenoxy)propan-2-ol], for which the IC50 turned out to be 9.37 nM.

For `CCCn1cc(-c2cccc(S(=O)(=O)N3CCC4(CC3)CC(NC[C@H](O)COc3cccc(S(C)(=O)=O)c3)CO4)c2)cn1` (stereo partly drawn) [Compound 38, (2S)-1-(3-(methylsulfonyl)phenoxy)-3-(8-(3-(1-propyl-1H-pyrazol-4-yl)phenylsulfonyl)-1-oxa-8-azaspiro[4.5]decan-3-ylamino)propan-2-ol], the IC50 came to 3.99 nM.

`CS(=O)(=O)c1cccc(OC[C@@H](O)CNC2COC3(CCN(S(=O)(=O)c4cccc(-c5cnn(C6CC6)c5)c4)CC3)C2)c1` (stereo partly drawn) [Compound 39, (2S)-1-(8-(3-(1-cyclopropyl-1H-pyrazol-4-yl)phenylsulfonyl)-1-oxa-8-azaspiro[4.5]decan-3-ylamino)-3-(3-(methylsulfonyl)phenoxy)propan-2-ol]: the IC50 worked out at 70.8 nM.

For `Cn1cc(-c2cccc(S(=O)(=O)N3CCC4(CC3)CC(NC[C@H](O)COc3cccc(S(C)(=O)=O)c3)CO4)c2)cn1` (stereo partly drawn) [Compound 40, (2S)-1-(8-(3-(1-methyl-1H-pyrazol-4-yl)phenylsulfonyl)-1-oxa-8-azaspiro[4.5]decan-3-ylamino)-3-(3-(methylsulfonyl)phenoxy)propan-2-ol], the IC50 was 20.3 nM.

On to `CS(=O)(=O)c1cccc(OC[C@@H](O)CNC2COC3(CCN(S(=O)(=O)c4cccc(-c5ccc(CN)cc5)c4)CC3)C2)c1` (stereo partly drawn) [Compound 41, (2S)-1-(8-(4′-(aminomethyl)biphenyl-3-ylsulfonyl)-1-oxa-8-azaspiro[4.5]decan-3-ylamino)-3-(3-(methylsulfonyl)phenoxy)propan-2-ol], for which the IC50 amounted to 13.7 nM.

Consider `CS(=O)(=O)c1cccc(OC[C@@H](O)CNC2COC3(CCN(S(=O)(=O)c4cccc(-c5ccc(S(N)(=O)=O)cc5)c4)CC3)C2)c1` (stereo partly drawn) [Compound 42, 3′-(3-((S)-2-hydroxy-3-(3-(methylsulfonyl)phenoxy)propylamino)-1-oxa-8-azaspiro[4.5]decan-8-ylsulfonyl)biphenyl-4-sulfonamide], for which the IC50 is 18.7 nM.

For the compound `CS(=O)(=O)c1cccc(OC[C@@H](O)CNC2COC3(CCN(S(=O)(=O)c4cccc(-c5ccncc5)c4)CC3)C2)c1` (stereo partly drawn) [Compound 43, (2S)-1-(3-(methylsulfonyl)phenoxy)-3-(8-(3-(pyridin-4-yl)phenylsulfonyl)-1-oxa-8-azaspiro[4.5]decan-3-ylamino)propan-2-ol], the IC50 was determined as 32.4 nM.

On to `Cc1cc(-c2cccc(S(=O)(=O)N3CCC4(CC3)CC(NC[C@H](O)COc3cccc(S(C)(=O)=O)c3)CO4)c2)ccn1` (stereo partly drawn) [Compound 44, (2S)-1-(8-(3-(2-methylpyridin-4-yl)phenylsulfonyl)-1-oxa-8-azaspiro[4.5]decan-3-ylamino)-3-(3-(methylsulfonyl)phenoxy)propan-2-ol], for which the IC50 was found to be 21.5 nM.

As to `CS(=O)(=O)c1cccc(OC[C@@H](O)CNC2COC3(CCN(S(=O)(=O)c4cccc(-c5ccccn5)c4)CC3)C2)c1` (stereo partly drawn) [Compound 45, (2S)-1-(3-(methylsulfonyl)phenoxy)-3-(8-(3-(pyridin-2-yl)phenylsulfonyl)-1-oxa-8-azaspiro[4.5]decan-3-ylamino)propan-2-ol], the IC50 is 23.6 nM.

Turning to `CS(=O)(=O)c1cccc(OC[C@@H](O)CNC2COC3(CCN(S(=O)(=O)c4cccnc4)CC3)C2)c1` (stereo partly drawn) [Compound 46, (2S)-1-(3-(methylsulfonyl)phenoxy)-3-(8-(pyridin-3-ylsulfonyl)-1-oxa-8-azaspiro[4.5]decan-3-ylamino)propan-2-ol], the half-inhibitory concentration (IC50) is 87 nM.

In the case of `CS(=O)(=O)c1cccc(OC[C@@H](O)CNC2COC3(CCN(S(=O)(=O)c4ccccc4)CC3)C2)c1` (stereo partly drawn) [Compound 47, (2S)-1-(3-(methylsulfonyl)phenoxy)-3-(8-(phenylsulfonyl)-1-oxa-8-azaspiro[4.5]decan-3-ylamino)propan-2-ol], the IC50 was determined as 82.1 nM.

For the compound `Cc1cccc(S(=O)(=O)N2CCC3(CC2)CC(NC[C@H](O)COc2cccc(S(C)(=O)=O)c2)CO3)c1` (stereo partly drawn) [Compound 48, (2S)-1-(3-(methylsulfonyl)phenoxy)-3-(8-(m-tolylsulfonyl)-1-oxa-8-azaspiro[4.5]decan-3-ylamino)propan-2-ol], the IC50 came to 46.1 nM.

With `COc1cccc(S(=O)(=O)N2CCC3(CC2)CC(NC[C@H](O)COc2cccc(S(C)(=O)=O)c2)CO3)c1` (stereo partly drawn) [Compound 49, (2S)-1-(8-(3-methoxyphenylsulfonyl)-1-oxa-8-azaspiro[4.5]decan-3-ylamino)-3-(3-(methylsulfonyl)phenoxy)propan-2-ol], the IC50 turned out to be 33.1 nM.

In the case of `CS(=O)(=O)c1cccc(OC[C@@H](O)CNC2COC3(CCN(S(=O)(=O)c4cccc(C(F)(F)F)c4)CC3)C2)c1` (stereo partly drawn) [Compound 50, (2S)-1-(3-(methylsulfonyl)phenoxy)-3-(8-(3-(trifluoromethyl)phenylsulfonyl)-1-oxa-8-azaspiro[4.5]decan-3-ylamino)propan-2-ol], the 50% inhibitory concentration (IC50) amounted to 42.2 nM.
